Data published in PubChem BioAssay AID1963963 (Molecular Pharmacology Branch, DTP, NCI, 2024).
One block for each molecule: values may come before it.

System: 958667-338-R-J2-PDC tumor spheroids viability
Assay: Anticancer human tumor 958667-338-R-J2-PDC patient-derived colon adenocarcinoma cell line growth inhibition [PI3K]
Conditions: spheroids with HUVEC and MSC; for viability, T/C: stronger effect = lower value
Outline: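 Three cell types, namely tumor cells, endothelial cells and mesenchymal stem cells, formed each spheroid. Combinations with four PI3K inhibitors were screened at clinically achievable concentrations decreasing by half-log, and spheroid viability was recorded.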

[1] = curve of first compound, second compound 0.0316 µM
[2] = curve of first compound, second compound 0.1 µM
[3] = curve of first compound, second compound 0.316 µM
[4] = curve of first compound, second compound 1 µM
[5] = second compound 0.0316 µM, first compound 0.0316 µM
[6] = second compound 0.0316 µM, first compound 0.1 µM
[7] = second compound 0.0316 µM, first compound 0.316 µM
[8] = second compound 0.0316 µM, first compound 1 µM
[9] = second compound 0.0316 µM, first compound 3.16 µM
[10] = second compound 0.0316 µM, first compound 10 µM
[11] = second compound 0.1 µM, first compound 0.0316 µM
[12] = second compound 0.1 µM, first compound 0.1 µM
[13] = second compound 0.1 µM, first compound 0.316 µM
[14] = second compound 0.1 µM, first compound 1 µM
[15] = second compound 0.1 µM, first compound 3.16 µM
[16] = second compound 0.1 µM, first compound 10 µM
[17] = second compound 0.316 µM, first compound 0.0316 µM
[18] = second compound 0.316 µM, first compound 0.1 µM
[19] = second compound 0.316 µM, first compound 0.316 µM
[20] = second compound 0.316 µM, first compound 1 µM
[21] = second compound 0.316 µM, first compound 3.16 µM
[22] = second compound 0.316 µM, first compound 10 µM
[23] = second compound 1 µM, first compound 0.0316 µM
[24] = second compound 1 µM, first compound 0.1 µM
[25] = second compound 1 µM, first compound 0.316 µM
[26] = second compound 1 µM, first compound 1 µM
[27] = second compound 1 µM, first compound 3.16 µM
[28] = second compound 1 µM, first compound 10 µM
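Further: spheroids exposed to compounds for seven days before readout.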

- IC50 (curve of first compound, second compound 0.00316 µM): > 10 µM
- IC50 (curve of first compound, second compound 0.01 µM): > 10 µM
- IC50 [1]: > 10 µM
- IC50 [2]: > 10 µM
- IC50 [3]: > 10 µM
- IC50 [4]: > 10 µM
Structure (SMILES): CC(Cn1ccc(-c2ccc(C#N)c(Cl)c2)n1)NC(=O)c1cc(C(C)O)[nH]n1 (centres undefined) + CC(Nc1ccc2c(c1)OCCn1cc(N3C(=O)OCC3C(F)F)nc1-2)C(N)=O
- viability, T/C (second compound 0.00316 µM, first compound 0.0316 µM): 118%
- viability, T/C (second compound 0.00316 µM, first compound 0.1 µM): 111%
- viability, T/C (second compound 0.00316 µM, first compound 0.316 µM): 126%
- viability, T/C (second compound 0.00316 µM, first compound 1 µM): 117%
- viability, T/C (second compound 0.00316 µM, first compound 3.16 µM): 84.7%
- viability, T/C (second compound 0.00316 µM, first compound 10 µM): 99.2%
- viability, T/C (second compound 0.01 µM, first compound 0.0316 µM): 92.7%
- viability, T/C (second compound 0.01 µM, first compound 0.1 µM): 106%
- viability, T/C (second compound 0.01 µM, first compound 0.316 µM): 77.4%
- viability, T/C (second compound 0.01 µM, first compound 1 µM): 91.4%
- viability, T/C (second compound 0.01 µM, first compound 3.16 µM): 90.6%
- viability, T/C (second compound 0.01 µM, first compound 10 µM): 90.5%
- viability, T/C [5]: 89.8%
- viability, T/C [6]: 99.9%
- viability, T/C [7]: 97.8%
- viability, T/C [8]: 93%
- viability, T/C [9]: 95%
- viability, T/C [10]: 75.2%
- viability, T/C [11]: 111%
- viability, T/C [12]: 88.9%
- viability, T/C [13]: 81.1%
- viability, T/C [14]: 78.6%
- viability, T/C [15]: 91.1%
- viability, T/C [16]: 82.4%
- viability, T/C [17]: 80%
- viability, T/C [18]: 49.7%
- viability, T/C [19]: 84.5%
- viability, T/C [20]: 63.6%
- viability, T/C [21]: 63.7%
- viability, T/C [22]: 78.8%
- viability, T/C [23]: 64.2%
- viability, T/C [24]: 61.2%
- viability, T/C [25]: 66.1%
- viability, T/C [26]: 62.8%
- viability, T/C [27]: 55.7%
- viability, T/C [28]: 49.8%

- IC50 [1]: > 10 µM
- IC50 [2]: > 10 µM
- IC50 [3]: > 10 µM
- IC50 [4]: > 10 µM
- IC50 (curve of first compound, second compound 3.16 µM): > 10 µM
- IC50 (curve of first compound, second compound 10 µM): 3.29 µM
Structure (SMILES): C[C@@H](NC(=O)c1ncnc(N)c1Cl)c1ncc(C(=O)Nc2cc(C(F)(F)F)c(Cl)cn2)s1 + Cc1nc(NC(=O)N2CCCC2C(N)=O)sc1-c1ccnc(C(C)(C)C(F)(F)F)c1
- viability, T/C [5]: 97.2%
- viability, T/C [6]: 121%
- viability, T/C [7]: 115%
- viability, T/C [8]: 88.6%
- viability, T/C [9]: 87.8%
- viability, T/C [10]: 89.2%
- viability, T/C [11]: 119%
- viability, T/C [12]: 126%
- viability, T/C [13]: 113%
- viability, T/C [14]: 108%
- viability, T/C [15]: 107%
- viability, T/C [16]: 94.9%
- viability, T/C [17]: 101%
- viability, T/C [18]: 85%
- viability, T/C [19]: 106%
- viability, T/C [20]: 111%
- viability, T/C [21]: 94.7%
- viability, T/C [22]: 90.2%
- viability, T/C [23]: 87%
- viability, T/C [24]: 95.8%
- viability, T/C [25]: 116%
- viability, T/C [26]: 94.9%
- viability, T/C [27]: 81.6%
- viability, T/C [28]: 75.7%
- viability, T/C (second compound 3.16 µM, first compound 0.0316 µM): 77.9%
- viability, T/C (second compound 3.16 µM, first compound 0.1 µM): 86.9%
- viability, T/C (second compound 3.16 µM, first compound 0.316 µM): 82.8%
- viability, T/C (second compound 3.16 µM, first compound 1 µM): 90.4%
- viability, T/C (second compound 3.16 µM, first compound 3.16 µM): 89.8%
- viability, T/C (second compound 3.16 µM, first compound 10 µM): 57.9%
- viability, T/C (second compound 10 µM, first compound 0.0316 µM): 79.4%
- viability, T/C (second compound 10 µM, first compound 0.1 µM): 82.5%
- viability, T/C (second compound 10 µM, first compound 0.316 µM): 76.6%
- viability, T/C (second compound 10 µM, first compound 1 µM): 71.3%
- viability, T/C (second compound 10 µM, first compound 3.16 µM): 50.7%
- viability, T/C (second compound 10 µM, first compound 10 µM): 28.2%

- IC50 (curve of compound): > 10 µM
Structure (SMILES): C=CC(=O)N1CCN(c2nc(=O)n(-c3c(C)ccnc3C(C)C)c3nc(-c4c(O)cccc4F)c(F)cc23)C(C)C1 (centres undefined)
- viability, T/C (compound 0.1 µM): 108% [middle of 4 runs]
- viability, T/C (compound 0.316 µM): 103% [middle of 4 runs]
- viability, T/C (compound 1 µM): 114% [middle of 4 runs]
- viability, T/C (compound 3.16 µM): 113% [middle of 4 runs]
